Source: article PMC9814838, “The orphan nuclear receptor Nurr1 is responsive to non-steroidal anti-inflammatory drugs” (Communications Chemistry, 2020)
No end group written: not given here. fluorescein = fluorescein label on the N-terminus

T1: NOR1 (Homo sapiens, UniProt Q92570)
T1 construct: NOR1 (isoform alpha; uniprot entry: hNOR1–Q92570-1, residues 393–626); expressed in transfected cells; host or cells: HEK293T
T1 sequence (Q92570 393-626): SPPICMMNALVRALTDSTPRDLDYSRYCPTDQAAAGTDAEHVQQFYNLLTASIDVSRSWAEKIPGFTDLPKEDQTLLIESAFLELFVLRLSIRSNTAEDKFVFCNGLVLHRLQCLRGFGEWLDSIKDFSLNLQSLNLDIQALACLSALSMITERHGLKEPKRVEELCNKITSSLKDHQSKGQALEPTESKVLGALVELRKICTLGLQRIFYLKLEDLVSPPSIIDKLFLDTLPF


Assays:
Nurr1 = biological target: T2, Nurr1 (Homo sapiens, UniProt P43354); assay: Gal4-Nurr1 hybrid reporter gene assay in HEK293T cells; format: cell-based; conditions: for Nurr1 activity 10μM (mean fold activation) / Nurr1 activity 30μM (mean fold activation): primary screen, n ≥ 2, ^# not significant vs VP16 control
T2 construct: Nurr1 (uniprot entry: hNURR1–P43354, residues 360–598); expressed in transfected cells; host or cells: HEK293T
T2 sequence (P43354 360-598): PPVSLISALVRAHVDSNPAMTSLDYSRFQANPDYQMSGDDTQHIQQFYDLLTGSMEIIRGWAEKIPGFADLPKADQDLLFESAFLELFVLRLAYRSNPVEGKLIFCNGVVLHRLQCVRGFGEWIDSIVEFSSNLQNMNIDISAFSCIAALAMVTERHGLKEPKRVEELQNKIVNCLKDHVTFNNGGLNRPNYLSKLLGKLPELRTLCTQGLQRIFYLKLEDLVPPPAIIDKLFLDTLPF

Nur77 = biological target: T3, Nur77 (Homo sapiens, UniProt P22736); assay: Gal4-Nur77 hybrid reporter gene assay in HEK293T cells; format: cell-based; conditions: for Nur77 activity 10μM (mean fold activation) / Nur77 activity 30μM (mean fold activation): primary screen, n ≥ 2, ^# not significant vs VP16 control; for IC50: HEK293T, n≥3; for IC50 / Nur77 min./max. activation: mean ± SD; for Nur77 min./max. activation: compared to 0.1% DMSO; for Nur77 activity in words or dash: dash = not reported as active versus VP16 control (p < 0.05)
T3 construct: Nur77 (uniprot entry: hNUR77–P22736, residues 358–598); expressed in transfected cells; host or cells: HEK293T
T3 sequence (P22736 358-598): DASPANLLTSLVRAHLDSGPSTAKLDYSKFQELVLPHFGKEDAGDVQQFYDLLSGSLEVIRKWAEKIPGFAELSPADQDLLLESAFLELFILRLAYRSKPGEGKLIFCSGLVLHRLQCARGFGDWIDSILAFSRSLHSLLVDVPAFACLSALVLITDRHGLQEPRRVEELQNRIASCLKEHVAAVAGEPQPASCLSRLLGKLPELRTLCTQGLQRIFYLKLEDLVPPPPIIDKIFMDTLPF

NOR1 = biological target: T1, NOR1; assay: Gal4-NOR1 hybrid reporter gene assay in HEK293T cells; format: cell-based; conditions: for Nor1 activity 10μM (mean fold activation) / Nor1 activity 30μM (mean fold activation): primary screen, n ≥ 2, ^# not significant vs VP16 control; for IC50: HEK293T, n≥3, read-out: NOR1 IC50; for IC50 / NOR1 min./max. activation: mean ± SD; for NOR1 min./max. activation: compared to 0.1% DMSO; for NOR1 activity in words or dash: dash = not reported as active versus VP16 control (p < 0.05)
Gal4-VP16 = biological target: T4, Gal4-VP16 (Human herpesvirus 1, UniProt P06492); format: cell-based; conditions: n ≥ 4
T4 construct: host or cells: HEK293T

[1] = biological target: T5, biotinylated recombinant Nurr1 LBD (Tb-labeled through Tb-cryptate streptavidin) (human, UniProt P43354-1 364-598, biotin on the lysine residue in the Avi-Tag); assay: AlphaScreen or HTRF; co-regulator recruitment: biotinylated Nurr1 LBD 3 nM on Tb-SA 3 nM (donor), fluorescein-labeled peptide 100 nM (acceptor); HTRF assay buffer (25 mM HEPES pH 7.5, 150 mM KF, 10% glycerol, 5 mM DTT) with 0.1% CHAPS; 1% DMSO alone or with AQ, CQ, MFA, parecoxib or oxaprozin at 100 µM (dose-response too); 2 h at RT; conditions: both partners purified
T5 construct: In the assays coupled to terbium cryptate streptavidin conjugate (Tb-SA) as FRET donor; also called Tb-labeled Nurr1 LBD; Tb-cryptate-labeled Nurr1 LBD; source: E. coli T7 express with pGro7, purified (IMAC, TEV cleavage, amylose resin, birA biotinylation, monomeric avidin, SEC); not shown: MBP, N-terminal, cleaved; His8, N-terminal, cleaved; Avi-Tag, N-terminal, kept

Molecule	Nurr1 activity 10μM (mean fold activation) (Nurr1)	Nurr1 activity 30μM (mean fold activation) (Nurr1)	Nur77 activity 10μM (mean fold activation) (Nur77)	Nur77 activity 30μM (mean fold activation) (Nur77)	Nor1 activity 10μM (mean fold activation) (NOR1)	Nor1 activity 30μM (mean fold activation) (NOR1)	further results
CC(C(=O)O)c1ccc(C(=O)c2ccccc2)s1 (centres unmarked) [tiaprofenic acid]	1.52 fold	1.46 fold	1.35 fold	1.38 fold	1.37 fold	1.42 fold	Nurr1-dependent reporter activity in primary screen (fold activation) (Nurr1; 10 or 30 µM): > 1.5 fold; Control experiments on Gal4-VP16 (non-specific reporter effects) (Gal4-VP16): non-specific activity
CN1C(C(=O)Nc2ccccn2)=C(O)c2sc(Cl)cc2S1(=O)=O [lornoxicam]	0.93 fold	0.86 fold	0.86 fold	0.64 fold	0.92 fold	0.73 fold	Nurr1 activity in words or dash (Nurr1; dash = not reported as active versus VP16 control (p < 0.05)): without affecting Nurr1 activity; IC50 (Nur77): 9.4 ± 6.3 µM; Nur77 min./max. activation (Nur77): 0.63 ± 0.09; Nur77 activity in words or dash (Nur77): inverse agonism; IC50 (NOR1): 24 ± 3 µM; NOR1 min./max. activation (NOR1): 0.62 ± 0.02; NOR1 activity in words or dash (NOR1): inverse agonism
Cc1c(Nc2ncccc2C(=O)O)cccc1C(F)(F)F [flunixin]	toxic	toxic	toxic	toxic	toxic	toxic	
COc1ccc(-c2noc(CC(=O)O)c2-c2ccc(OC)cc2)cc1 [mofezolac]	0.94 fold	0.94 fold	0.98 fold	0.69 fold	1.00 fold	0.78 fold	IC50 (Nur77): 30 ± 1 µM; Nur77 min./max. activation (Nur77): 0.38 ± 0.02; Nur77 activity in words or dash (Nur77): inverse agonism; IC50 (NOR1): 33 ± 5 µM; NOR1 min./max. activation (NOR1): 0.32 ± 0.10; NOR1 activity in words or dash (NOR1): inverse agonism
Cc1ccc(C(=O)c2ccc(CC(=O)O)n2C)cc1 [tolmetin]	1.08 fold	1.13 fold	1.10 fold	0.97 fold	1.08 fold	1.00 fold	
COc1ccc2cc(CCC(C)=O)ccc2c1 [nabumeton]	1.44 fold	1.46 fold	1.57 fold	1.44 fold	1.69 fold	1.74 fold	
CC(=O)Oc1ccccc1C(=O)O [acetylsalicylic acid]	1.02 fold	0.92 fold	0.98 fold	0.97 fold	1.03 fold	0.93 fold	
Cc1cccc(Nc2ccccc2C(=O)O)c1C [mefenamic acid]	0.90 fold	0.86 fold	0.80 fold	toxic	0.95 fold	toxic	
Cc1ccc(-c2cc(C(F)(F)F)nn2-c2ccc(S(N)(=O)=O)cc2)cc1 [celecoxib]	0.93 fold	0.97 fold	0.75 fold	toxic	0.92 fold	toxic	
Nc1c(CC(=O)O)cccc1C(=O)c1ccc(Br)cc1 [bromfenac]	1.09 fold	1.12 fold	1.08 fold	1.03 fold	1.26 fold	1.09 fold	
CC(C(=O)O)c1cccc(Oc2ccccc2)c1 (centres unmarked) [fenoprofen]	1.00 fold	0.91 fold	0.99 fold	0.86 fold	1.01 fold	0.81 fold	
CN1C(C(=O)Nc2ccccn2)=C(O)c2ccccc2S1(=O)=O [piroxicam]	0.98 fold	0.98 fold	1.03 fold	0.92 fold	1.05 fold	1.01 fold	
O=C(O)c1ccccc1O [salicylic acid]	1.08 fold	1.02 fold	1.06 fold	1.02 fold	1.01 fold	0.99 fold	
CN1C(C(=O)Nc2ccccn2)=C(O)c2sccc2S1(=O)=O [tenoxicam]	1.04 fold	0.99 fold	0.98 fold	0.98 fold	0.95 fold	0.90 fold	
COc1ccc2c(c1)c(CC(=O)O)c(C)n2C(=O)c1ccc(Cl)cc1 [indometacin]	0.96 fold	0.91 fold	0.83 fold	toxic	0.87 fold	toxic	
fluorescein-SHQKVTLLQLLLGHKNEEN (also called RIP140L6; source: bought: ThermoFisher Scientific (Life Technologies))							binding result [1]: binds
fluorescein-HASTNMGLEAIIRKALMGKYDQW (also called NCoR-2; source: bought: ThermoFisher Scientific (Life Technologies)) [silencing mediator for retinoid and thyroid hormone receptor (SMRT) ID2 peptide, fluorescein-labeled]							binding result [1]: binds
fluorescein-LPYEGSLLLKLLRAPVEEV (source: bought: ThermoFisher Scientific (Life Technologies)) [D22 peptide, fluorescein-labeled]							binding result [1]: binds
fluorescein-VTLTSPLLVNLLQSDISAG (also called TRBP; source: bought: ThermoFisher Scientific (Life Technologies)) [nuclear receptor co-activator 6 (NCoA6, also termed PRIPRAP250) peptide, fluorescein-labeled]							binding result [1]: binds
fluorescein-RTHRLITLADHICQIITQDFARN (also called NCoR-1; source: bought: ThermoFisher Scientific (Life Technologies)) [nuclear receptor co-repressor (NCOR) ID1 peptide, fluorescein-labeled]							binding result [1]: binds
